Data published in US8518859B2, “Method for increasing yield of staple food crop” (National University Corporation Shizuoka University, priority 2009, dated 2013).
Marks after values point to notes of the source that are not given here.

Tests used:
[1] = tested on: Rice (cultivar: "Nipponbare"); test: Yield-increasing effect in hydroponic culture of rice (Example 1); assay type: in vivo, rice (genus Oryza)
Procedure: Rice (cultivar: “Nipponbare”) was used in the test. Seeds thereof were sown in a nursery box, and after 20 days of cultivation, the resulting rice seedlings were transplanted one by one to a pot (1/5000-a) and cultivated for 1 week with tap water.
After the cultivation with tap water, the thus obtained rice plants were cultured in a culture medium added with the AHX (50 μM), which was synthesized in the above, in an outdoor environment over a period of 97 days starting in July.
During the periods from the 8th day to the 32nd day and the period from the 73rd day to the 97th day after the transplantation, the culture was carried out in a medium having a half concentration of the undiluted culture medium, and during the period from the 33rd day to the 72nd day, the undiluted culture medium was used.
Water and nutrients were supplied once every 3 days. As the medium used for the addition, the culture medium for the AHX-treated section and the culture medium for the control section were respectively used in the AHX-treated section and the control section. It is noted here, however, that the culture medium was replaced once a week in the case of hydroponic culture.
The cereal crops obtained by the culture were dried for 2 weeks and the following items were measured: brown rice mass; water content, carbon content and nitrogen content of brown rice; size and number of brown rice (per plant); leaf length; culm length; panicle length; number of panicles; tiller number; and mass of the above-ground and underground parts. Here, the size of brown rice means the mass per grain determined from the brown rice mass (g/100 brown rice grains) and the number of brown rice refers to a value obtained by dividing the brown rice weight (g/plant) by the brown rice weight (g/100 brown rice grains) (number of plants n=6).

[2] = tested on: rice (Nipponbare); test: Yield-increasing effect in soil culture of rice 1 (Example 2); assay type: in vivo, rice (genus Oryza); conditions: AHX 50 μM
Procedure: Soil culture was carried out for 97 days starting in July in the same manner as in Example 1, except that seedlings of rice (Nipponbare) were transplanted one by one to a soil (in 1/5000-a pot) which contains a fertilizer containing N (1,440 mg), P2O5 (12 mg), K2O (760 mg) and CaO (806 mg).
Water and nutrients were supplied once a day. As the medium used for the addition, the culture medium for the AHX (50 μM)-treated section and the culture medium for the control section were respectively used in the AHX (50 μM)-treated section and the control section. It is noted here that, unlike the case of hydroponic culture, the culture medium was not replaced.
The cereal crops obtained by the soil culture were dried for 2 weeks and the following items were measured in the same manner as in Example 1: brown rice mass; water content, carbon content and nitrogen content of brown rice; size and number of brown rice (per plant); leaf length; culm length; panicle length; number of panicles; tiller number; and mass of the above-ground part (n=7).

[3] = tested on: rice (Nipponbare); test: Yield-increasing effect in soil culture of rice 2 (Example 3); assay type: in vivo, rice (genus Oryza); conditions: for Brown rice weight (g/plant): soil culture Jun. 10 to Sep. 29, n=6; for Brown rice weight (g/100 brown rice grains) / Culm length (cm) / Mass of the above-ground part (g/plant) / Number of panicles (/plant) / Panicle length (cm): n=6; for Brown rice size: mass per grain
Procedure: Soil culture was carried out from Jun. 10, 2009 to Sep. 29, 2009 in the same manner as in Example 1, except that seedlings of rice (Nipponbare) obtained by a 30-day cultivation were transplanted one by one to a soil (in 1/5000-a pot) which contains a fertilizer containing N (1,440 mg), P2O5 (12 mg), K2O (760 mg) and CaO (806 mg).
Water and nutrients were supplied once a day. As the medium used for the addition, the culture medium for the AHX (5 μM)-treated section, the culture medium for the ICA (2 μM)-treated section and the culture medium the control section were respectively used in the AHX (5 μM)-treated section, the ICA (2 μM)-treated section and the control section. It is noted here that, unlike the case of hydroponic culture, the culture medium was not replaced.
(§1) The cereal crops obtained by the soil culture were dried for 2 weeks and the following items were measured: brown rice mass; water content of brown rice; size and number of brown rice (per plant); panicle length; culm length; number of panicles; and mass of the above-ground part (n=6).

[4] = tested on: Rice (cultivar: "Nipponbare"); test: Yield-increasing effect in soil culture of rice 3, treatment before planting (Example 4); assay type: in vivo, rice (genus Oryza)
Procedure: Rice (cultivar: “Nipponbare”) was used in the test. Seeds thereof were sown in a nursery box, and after 16 days of cultivation, the resulting rice seedlings were transplanted to a pot (1/5000-a) and hydroponically cultured in a culture medium added with the AHX (1 mM) synthesized in the above for 2 weeks before settled-planting.
After the above-described hydroponic culture, the resulting seedlings were settled-planted in soil (in 1/5000-a pot) which contains a fertilizer containing N (1,440 mg), P2O5 (12 mg), K2O (760 mg) and CaO (806 mg). and soil-cultured from Jun. 10, 2009 to Sep. 29, 2009 in the same manner as in Example 1. During the soil culture period, no treatment with AHX was performed, and water and nutrients were supplied once per day. It is noted here that the culture medium was not replaced.
as §1

[5] = tested on: seed potato (cultivar: "Danshaku"); test: Yield-increasing effect in potato (Example 5); assay type: in vivo, potato (genus Solanum)
Procedure: A seed potato (cultivar: “Danshaku”) was cut into pieces of 30 g to 35 g in weight and they were each allowed to take roots in soil (in 1/2000-a pot) which contains a fertilizer containing N (960 mg), P2O5 (480 mg), K2O (640 mg) and MgO (320 mg). After 2-weeks of cultivation with tap water (after an above-ground part appeared), 2.74 mg (20 μmol) of AHX was dissolved in tap water and added to the pot every week. The Danshaku potato was cultured in an outdoor environment over a period of 12 weeks starting in January. The control section was treated with tap water only.
After 12 weeks, the Danshaku potato was harvested to measure the tuber mass (for the whole potato and a group consisting of potatoes having a weight of not less than 20 g that were extracted), the length and mass of the above-ground part and the leaf length (n=5).

[6] = tested on: wheat (Nourin 61); test: Yield-increasing effect in wheat (Example 6); assay type: in vivo, wheat (genus Triticum); conditions: 6 pots
Procedure: In 1/2000-a pots having crushed gravel in the bottom, 6 kg of a paddy-rice nursery soil was placed and, as a base fertilizer, 5-7-6 (N—P—K) was added in an amount of 4 g. The soil was sufficiently watered and 3 days later, 10 grains of wheat (Nourin 61) were sown in each pot. The wheat was cultured providing 300 ml of water once a week, and the seedlings were thinned 2 weeks after germination to leave 5 seedlings showing good growth. In the subsequent two weeks, a total of 6 pots were each treated once a week with AHX (5 μM), AHX (50 μM), AHX (1 mM), ICA (2 μM) or water only (control). Then, after culturing for 9 weeks providing 300 ml of just water once a week, the culture was continued for another 12 weeks by changing the amount of water to 500 ml once a week. It is noted here that, 2 weeks after the change was made in the amount of water, 0.75 g of ammonium sulfate was added to each pot as a panicle fertilizer. Further, the AHX (1 mM) treatment pots were subjected to an additional treatment with AHX (1 mM) for 2 weeks after the addition of the panicle fertilizer. The culture was carried out from Oct. 26, 2009 to May 12, 2010. After the completion of the culture, drying was performed for two weeks and the total wheat yield (g/5 plants) was measured.

[7] = AHX 50 μM, hydroponic culture 97 days, n=6
[8] = 1 mM-treatment before planting, soil culture, n=6
[9] = 20 μmol AHX per pot every week, 12 weeks, n=5

O=c1[nH]nnc2nc[nH]c12 [AHX, 2-azahypoxanthine]
Brown rice weight (g/plant) ([1]; AHX 50 μM in culture medium, hydroponic culture 97 days, n=6): 34.6 * g/plant | Number of brown rice (/plant) ([1]; AHX 50 μM, hydroponic culture 97 days): 1544 /plant | Brown rice weight (g/100 brown rice grains) [1, 7]: 2.24 * g/100 brown rice grains | Culm length (cm) [1, 7]: 60.7 cm | Leaf length (cm) [1, 7]: 72.2 * cm | Mass of the above-ground part (g/plant) [1, 7]: 103 *^ g/plant | Mass of underground part (g/plant) [1, 7]: 8.56 g/plant | Number of panicles (/plant) [1, 7]: 30.8 * /plant | Panicle length (cm) [1, 7]: 21.4 * cm | Tiller number (/plant) [1, 7]: 25.1 /plant | Brown rice size ([1]; AHX 50 μM, hydroponic culture 97 days, mass per grain): 22.4 mg | Increase of brown rice weight per plant ([1]; AHX 50 μM, hydroponic culture, vs control): about 6% | Number of brown rice (/plant) ([2]; soil culture 97 days): 1864 /plant | Brown rice weight (g/100 brown rice grains) ([2]; soil culture 97 days, n=7): 2.28 g/100 brown rice grains | Brown rice weight (g/plant) ([2]; soil culture 97 days, n=7): 42.5 * g/plant | Culm length (cm) ([2]; soil culture 97 days, n=7): 70.0 cm | Leaf length (cm) ([2]; soil culture 97 days, n=7): 76.5 cm | Mass of the above-ground part (g/plant) ([2]; soil culture 97 days, n=7): 122 *^ g/plant | Number of panicles (/plant) ([2]; soil culture 97 days, n=7): 24.5 /plant | Panicle length (cm) ([2]; soil culture 97 days, n=7): 21.1 cm | Tiller number (/plant) ([2]; soil culture 97 days, n=7): 26.2 /plant | Brown rice size ([2]; soil culture 97 days, mass per grain): 22.8 mg | Increase of brown rice weight per plant ([2]; soil culture, vs control): about 10% | Number of brown rice (/plant) ([3]; 5 μM, soil culture): 2086 /plant | Brown rice weight (g/plant) ([3]; 5 μM): 46.3 * g/plant | Brown rice weight (g/100 brown rice grains) ([3]; 5 μM, soil culture): 2.22 g/100 brown rice grains | Culm length (cm) ([3]; 5 μM, soil culture): 89.8 cm | Mass of the above-ground part (g/plant) ([3]; 5 μM, soil culture): 150 g/plant | Number of panicles (/plant) ([3]; 5 μM, soil culture): 30.8 /plant | Panicle length (cm) ([3]; 5 μM, soil culture): 20.8 cm | Increase of brown rice weight per plant ([3]; 5 μM, soil culture, vs control): about 25% | Brown rice size ([3]; 5 μM, soil culture): 22.2 mg | Number of brown rice (/plant) ([4]; 1 mM-treatment before planting, soil culture): 2027 /plant | Brown rice weight (g/100 brown rice grains) [4, 8]: 2.15 g/100 brown rice grains | Culm length (cm) [4, 8]: 86 cm | Mass of the above-ground part (g/plant) [4, 8]: 154 *^ g/plant | Number of panicles (/plant) [4, 8]: 33 /plant | Panicle length (cm) [4, 8]: 21.1 cm | Brown rice size ([4]; 1 mM-treatment before planting, soil culture, mass per grain): 21.5 mg | Increase of brown rice weight per plant ([4]; 1 mM-treatment before planting, vs control): about 18% | Brown rice weight (g/plant) ([4]; 1 mM-treatment for 2 weeks before planting, then soil culture without AHX, n=6): 43.6 * g/plant | Leaf length (cm) [5, 9]: 7 cm | Length of the above-ground part (cm) [5, 9]: 24 cm | Mass of the above-ground part (g/plant) [5, 9]: 30 g/plant | Total mass (g · potatoes of not less than 20 g/plant) [5, 9]: 85 * g · potatoes of not less than 20 g/plant | Total mass (g/plant) of tubers ([5]; 2.74 mg (20 μmol) AHX per pot every week, 12 weeks, soil, n=5): 95 * g/plant | Increase of total mass of potatoes ([5]; treated with AHX for 12 weeks, vs control): about 19% | Increase of mass, only potatoes of not less than 20 g ([5]; treated with AHX for 12 weeks, vs control section): about 40% | Seed Yield (g/5 plants) ([6]; 5 μM, once a week for two weeks, soil pots): 44.66 g/5 plants | Seed Yield (g/5 plants) ([6]; 50 μM, once a week for two weeks, soil pots): 45.68 g/5 plants | Seed Yield (g/5 plants) ([6]; 1 mM, once a week for two weeks plus additional 2 weeks after panicle fertilizer): 46.79 g/5 plants

NC(=O)c1c[nH]cn1 [ICA, imidazole-4-carboxamide]
Number of brown rice (/plant) ([3]; 2 μM, soil culture): 2104 /plant | Brown rice weight (g/plant) ([3]; 2 μM): 46.5 * g/plant | Brown rice weight (g/100 brown rice grains) ([3]; 2 μM, soil culture): 2.21 g/100 brown rice grains | Culm length (cm) ([3]; 2 μM, soil culture): 87.2 cm | Mass of the above-ground part (g/plant) ([3]; 2 μM, soil culture): 152 g/plant | Number of panicles (/plant) ([3]; 2 μM, soil culture): 30.5 /plant | Panicle length (cm) ([3]; 2 μM, soil culture): 22.1 cm | Increase of grain weight per plant ([3]; 2 μM, soil culture, vs control): about 26% | Brown rice size ([3]; 2 μM, soil culture): 22.1 mg | Seed Yield (g/5 plants) ([6]; 2 μM, once a week for two weeks, soil pots): 47.99 g/5 plants
